The record followed here is US20210253575A1, “PYRROLIDINE AMINE COMPOUNDS FOR THE TREATMENT OF AUTOIMMUNE DISEASE” (Hoffmann-La Roche Inc., priority 2018, published 2021).

This test concerns the target T1, human TLR8 (Homo sapiens, UniProt Q9NR97).
T1 sequence (Q9NR97 27-1041): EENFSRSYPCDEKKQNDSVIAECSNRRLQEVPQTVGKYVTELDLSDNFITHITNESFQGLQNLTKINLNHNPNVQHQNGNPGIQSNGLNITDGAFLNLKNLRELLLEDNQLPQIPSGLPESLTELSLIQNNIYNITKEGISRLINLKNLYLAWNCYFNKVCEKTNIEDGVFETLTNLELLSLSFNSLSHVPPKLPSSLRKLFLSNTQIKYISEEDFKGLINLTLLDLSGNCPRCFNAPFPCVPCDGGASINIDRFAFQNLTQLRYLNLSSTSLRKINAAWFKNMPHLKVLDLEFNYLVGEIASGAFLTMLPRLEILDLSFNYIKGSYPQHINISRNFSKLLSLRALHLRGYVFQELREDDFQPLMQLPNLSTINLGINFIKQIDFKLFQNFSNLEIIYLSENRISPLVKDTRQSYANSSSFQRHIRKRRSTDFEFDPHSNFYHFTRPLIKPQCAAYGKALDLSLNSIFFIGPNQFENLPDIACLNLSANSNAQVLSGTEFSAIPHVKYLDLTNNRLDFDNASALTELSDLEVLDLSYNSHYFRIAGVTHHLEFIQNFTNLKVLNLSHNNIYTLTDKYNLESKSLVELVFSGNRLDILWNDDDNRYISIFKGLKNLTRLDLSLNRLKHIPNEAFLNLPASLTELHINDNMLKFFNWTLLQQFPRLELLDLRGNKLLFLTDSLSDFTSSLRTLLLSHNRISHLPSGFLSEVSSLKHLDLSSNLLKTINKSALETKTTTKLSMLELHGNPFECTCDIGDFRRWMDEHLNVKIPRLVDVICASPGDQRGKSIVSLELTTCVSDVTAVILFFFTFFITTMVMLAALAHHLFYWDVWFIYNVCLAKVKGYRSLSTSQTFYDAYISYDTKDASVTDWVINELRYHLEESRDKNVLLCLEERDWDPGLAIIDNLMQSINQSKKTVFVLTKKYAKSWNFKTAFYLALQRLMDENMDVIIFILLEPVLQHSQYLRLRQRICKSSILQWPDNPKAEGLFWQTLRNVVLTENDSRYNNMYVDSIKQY
The test can be described thus: HEK293-Blue-hTLR-8 cells assay (SEAP reporter, R848 stimulation). The class given is cell-based. The conditions noted are these: HEK293-Blue-hTLR8 cells, R848 ligand, 20 hrs incubation. The procedure:
The following tests were carried out in order to determine the activity of the compounds of formula (I) in HEK293-Blue-hTLR-7/8/9 cells assay.
HEK293-Blue-hTLR-8 Cells Assay:
A stable HEK293-Blue-hTLR-8 cell line was purchased from InvivoGen (Cat. #: hkb-htlr8, San Diego, Calif., USA). These cells were originally designed for studying the stimulation of human TLR8 by monitoring the activation of NF-κB. A SEAP (secreted embryonic alkaline phosphatase) reporter gene was placed under the control of the IFN-β minimal promoter fused to five NF-κB and AP-1-binding sites. The SEAP was induced by activating NF-κB and AP-1 via stimulating HEK-Blue hTLR8 cells with TLR8 ligands. Therefore the reporter expression was declined by TLR8 antagonist under the stimulation of a ligand, such as R848, for incubation of 20 hrs. The cell culture supernatant SEAP reporter activity was determined using QUANTI-Blue™ kit (Cat. #: rep-qb1, Invivogen, San Diego, Ca, USA) at a wavelength of 640 nm, a detection medium that turns purple or blue in the presence of alkaline phosphatase.
HEK293-Blue-hTLR8 cells were incubated at a density of 250,000˜450,000 cells/mL in a volume of 170 μL in a 96-well plate in Dulbecco's Modified Eagle's medium (DMEM) containing 4.5 g/L glucose, 50 U/mL penicillin, […], […], 2 mM L-glutamine, 10% (v/v) heat-inactivated fetal bovine serum with addition of 20 μL test compound in a serial dilution in the presence of final DMSO at 1% and 10 μL of 60 uM R848 in above DMEM, perform incubation under 37° C. in a CO2 incubator for 20 hrs. Then 20 μL of the supernatant from each well was incubated with 180 μL Quanti-blue substrate solution at 37° C. for 2 hrs and the absorbance was read at 620-655 nm using a spectrophotometer. The signalling pathway that TLR8 activation leads to downstream NF-κB activation has been widely accepted, and therefore similar reporter assay was modified for evaluating TLR8 antagonist.
As a reminder, the IC50 is the point on the concentration scale where inhibition reaches its midpoint. Molecule `N#Cc1ccc(N2CC(CN3CCC4(CC3)CNCCO4)C3(CC3)C2)c2nccnc12` (centres unmarked) [Example 49, 8-[7-(1-Oxa-4,9-diazaspiro[5.5]undecan-9-ylmethyl)-5-azaspiro[2.4]heptan-5-yl]quinoxaline-5-carbonitrile] registered an IC50 of 24 nM.
In the case of `N#Cc1ccc(N2CC(CN3CC4CCNCC43)C3(CC3)C2)c2nccnc12` (centres unmarked) [Example 50, 8-[7-(3,8-Diazabicyclo[4.2.0]octan-8-ylmethyl)-5-azaspiro[2.4]heptan-5-yl]quinoxaline-5-carbonitrile], the IC50 turned out to be 38 nM.
The same measure for `N#Cc1ccc(N2C[C@H](CN3CCC(N)CC3)[C@@H](C(F)(F)F)C2)c2nccnc12` [Example 51, 8-[(3S,4R)-3-[(4-amino-1-piperidyl)methyl]-4-(trifluoromethyl)pyrrolidin-1-yl]quinoxaline-5-carbonitrile]: 57 nM.
The same measure for `N#Cc1ccc(N2C[C@H](CN3CCC(N4CCNCC4)CC3)[C@@H](C(F)(F)F)C2)c2cccnc12` [Example 52, 5-[(3S,4R)-3-[(4-piperazin-1-yl-1-piperidyl)methyl]-4-(trifluoromethyl)pyrrolidin-1-yl]quinoline-8-carbonitrile]: 88 nM; for `N#Cc1ccc(N2C[C@H](CN3CC4(CC(N)C4)C3)[C@@H](C(F)(F)F)C2)c2cccnc12` [Example 53, 5-[(3S,4R)-3-[(6-Amino-2-azaspiro[3.3]heptan-2-yl)methyl]-4-(trifluoromethyl)pyrrolidin-1-yl]quinoline-8-carbonitrile]: 146 nM.
The same measure for `N#Cc1ccc(N2C[C@H](CN3CCC4(CCNC4)CC3)[C@@H](C(F)(F)F)C2)c2cccnc12` [Example 54, 5-[(3S,4R)-3-(2,8-Diazaspiro[4.5]decan-8-ylmethyl)-4-(trifluoromethyl)pyrrolidin-1-yl]quinoline-8-carbonitrile]: 44 nM; for `N#Cc1ccc(N2C[C@H](CN3CCC4(CCCNC4)CC3)[C@@H](C(F)(F)F)C2)c2cccnc12` [Example 55, 5-[(3S,4R)-3-(2,9-Diazaspiro[5.5]undecan-9-ylmethyl)-4-(trifluoromethyl)pyrrolidin-1-yl]quinoline-8-carbonitrile]: 42 nM; for `N#Cc1ccc(N2C[C@H](CN3CCC4(CCNCC4)C3)[C@@H](C(F)(F)F)C2)c2cccnc12` [Example 56, 5-[(3S,4R)-3-(2,8-Diazaspiro[4.5]decan-2-ylmethyl)-4-(trifluoromethyl)pyrrolidin-1-yl]quinoline-8-carbonitrile]: 62 nM.
On to `N#Cc1ccc(N2C[C@H](CN3CCCC4(CCNCC4)C3)[C@@H](C(F)(F)F)C2)c2cccnc12` [Example 57, 5-[(3S,4R)-3-(2,9-Diazaspiro[5.5]undecan-2-ylmethyl)-4-(trifluoromethyl)pyrrolidin-1-yl]quinoline-8-carbonitrile], for which it took 85 nM to reach half-maximal inhibition (IC50).
The same measure for `N#Cc1ccc(N2CC(CN3CCC(N4CCOCC4)CC3)C3(CC3)C2)c2nccnc12` (centres unmarked) [Example 58, 8-[7-[(4-Morpholino-1-piperidyl)methyl]-5-azaspiro[2.4]heptan-5-yl]quinoxaline-5-carbonitrile]: 91 nM; for `N#Cc1ccc(N2C[C@H](CN3CCNCC3)[C@@H](C(F)(F)F)C2)c2nccnc12` [Example 59, 8-[(3S,4R)-3-(Piperazin-1-ylmethyl)-4-(trifluoromethyl)pyrrolidin-1-yl]quinoxaline-5-carbonitrile]: 14 nM; for `N#Cc1ccc(N2C[C@H](CN3CCC(N4CCCC4)CC3)[C@@H](C(F)(F)F)C2)c2nccnc12` [Example 60, 8-[(3S,4R)-3-[(4-Pyrrolidin-1-yl-1-piperidyl)methyl]-4-(trifluoromethyl)pyrrolidin-1-yl]quinoxaline-5-carbonitrile]: 43 nM.
The same measure for `N#Cc1ccc(N2C[C@H](CN3CCC(N4CCCCC4)CC3)[C@@H](C(F)(F)F)C2)c2nccnc12` [Example 61, 8-[(3S,4R)-3-[[4-(1-Piperidyl)-1-piperidyl]methyl]-4-(trifluoromethyl)pyrrolidin-1-yl]quinoxaline-5-carbonitrile]: 23 nM; for `N#Cc1ccc(N2C[C@H](CN3CCC(N4CCCCCC4)CC3)[C@@H](C(F)(F)F)C2)c2nccnc12` [Example 62, 8-[(3S,4R)-3-[[4-(Azepan-1-yl)-1-piperidyl]methyl]-4-(trifluoromethyl)pyrrolidin-1-yl]quinoxaline-5-carbonitrile]: 28 nM; for `N#Cc1ccc(N2C[C@H](CN3C4CCC3CC(N)C4)[C@@H](C(F)(F)F)C2)c2nccnc12` (stereo partly drawn) [Example 63, 8-[(3S,4R)-3-[(3-amino-8-azabicyclo[3.2.1]octan-8-yl)methyl]-4-(trifluoromethyl)pyrrolidin-1-yl]quinoxaline-5-carbonitrile]: 25 nM.
The same measure for `N#Cc1ccc(N2C[C@H](CN3CCC(N)C(F)(F)C3)[C@@H](C(F)(F)F)C2)c2nccnc12` (stereo partly drawn) [Example 64, 8-[(3S,4R)-3-[(4-amino-3,3-difluoro-1-piperidyl)methyl]-4-(trifluoromethyl)pyrrolidin-1-yl]quinoxaline-5-carbonitrile]: 86 nM; for `N#Cc1ccc(N2CC(CN3CCC4(CCCCN4)CC3)C3(CC3)C2)c2nccnc12` (centres unmarked) [Example 65, 8-[7-(1,9-Diazaspiro[5.5]undecan-9-ylmethyl)-5-azaspiro[2.4]heptan-5-yl]quinoxaline-5-carbonitrile]: 92 nM.
On to `N#Cc1ccc(N2CC(CN3CCC4NCC4C3)C3(CC3)C2)c2nccnc12` (centres unmarked) [Example 66, 8-[7-(3,7-Diazabicyclo[4.2.0]octan-3-ylmethyl)-5-azaspiro[2.4]heptan-5-yl]quinoxaline-5-carbonitrile], for which the IC50 was found to be 82 nM.
`N#Cc1ccc(N2CC(CN3CCOC4(CCNCC4)C3)C3(CC3)C2)c2nccnc12` (centres unmarked) [Example 67, 8-[7-(1-Oxa-4,9-diazaspiro[5.5]undecan-4-ylmethyl)-5-azaspiro[2.4]heptan-5-yl]quinoxaline-5-carbonitrile] came in with an IC50 of 41 nM.
The same measure for `N#Cc1ccc(N2CC(CN3CCC(N)CC3)C3(CC3)C2)c2nccnc12` (centres unmarked) [Example 68, 8-[7-[(4-Amino-1-piperidyl)methyl]-5-azaspiro[2.4]heptan-5-yl]quinoxaline-5-carbonitrile]: 51 nM; for `N#Cc1ccc(N2C[C@H](CN3CCCC(C(N)=O)C3)[C@@H](C(F)(F)F)C2)c2nccnc12` (stereo partly drawn) [Example 69, 1-[[(3S,4R)-1-(S-cyanoquinoxalin-5-yl)-4-(trifluoromethyl)pyrrolidin-3-yl]methyl]piperidine-3-carboxamide]: 729 nM; for `N#Cc1ccc(N2C[C@H](CN3CCC4(CC3)CNCCO4)[C@@H](C(F)(F)F)C2)c2nccnc12` [Example 70, 8-[(3S,4R)-3-(1-oxa-4,9-diazaspiro[5.5]undecan-9-ylmethyl)-4-(trifluoromethyl)pyrrolidin-1-yl]quinoxaline-5-carbonitrile]: 20 nM.
The same measure for `N#Cc1ccc(N2C[C@H](CNC3CCNCC3)[C@@H](C(F)(F)F)C2)c2nccnc12` [Example 71, 8-[(3S,4R)-3-[(4-piperidylamino)methyl]-4-(trifluoromethyl)pyrrolidin-1-yl]quinoxaline-5-carbonitrile]: 94 nM.
